For experiment [1], the system named is Influenza A virus. Kind of experiment: Antiviral activity against amantadine-resistant Influenza A virus (A/WSN/1933) infected in MDCK cells preincubated for 30 mins followed by viral infection measured after 72 hrs by CCK-8 assay. Particulars: A/WSN/1933(H1N1). It counts as functional, organism-based. A general note: Tetrazolium assays rely on reduction of a dye to a coloured formazan, in cell work by metabolically active cells.

Experiment [2] concerns Influenza A virus. Nature of the experiment: Antiviral activity against M2 ion channel S31N mutant expressing amantadine-resistant Influenza A virus infected in MDCK cells preincubated for 30 mins followed by viral infection measured after 72 hrs by CCK-8 assay. It counts as functional, organism-based.

The source made the active and inactive calls. The rule behind the calls is not given here.

As for `C[C@@H](N)[C@H]1C[C@H]2CC[C@]1(C)C2(C)C.Cl`, the result in experiment [1] and in experiment [2] was inactive.

Regarding `N[C@H]1C[C@@H]2CC[C@H]1C2`, the result in experiment [1] and in experiment [2] was inactive.

As to `CC1(C)[C@@H]2CC[C@@]1(C)[C@@H](CN)C2`, the result in experiment [1] and in experiment [2] was inactive.

`NC1CC2CCC1C2` (stereo not drawn): the result in experiment [1] and in experiment [2] was inactive.

As to `C[C@H]1[C@H]([C@H](C)N)C[C@@H]2C[C@H]1C2(C)C`, the result in experiment [1] and in experiment [2] was inactive.

With `C[C@H]1[C@H](N)C[C@@H]2C[C@H]1C2(C)C`, the outcome in experiment [1] and in experiment [2] was inactive.

For `C[C@H]1[C@H](CN)C[C@@H]2C[C@H]1C2(C)C`, the result in experiment [1] and in experiment [2] was inactive.

Take `CC1(C)[C@H]2CC[C@](C)(C2)[C@H]1CN`: the result in experiment [1] and in experiment [2] was inactive.

`CC1(C)[C@@H]2CC[C@@]1(C)[C@@H](N)C2` (relative stereo): the result in experiment [1] and in experiment [2] was inactive.

Values taken from ChEMBL document CHEMBL3734655, “Identification of camphor derivatives as novel M2 ion channel inhibitors of influenza A virus” (Medchemcomm, 2015).
